From publication PMC9318275, “A Novel ALDH1A1 Inhibitor Blocks Platinum-Induced Senescence and Stemness in Ovarian Cancer” (Cancers, 2022) come the findings set out here.

The target in assay [1] is T1, ALDH1A1 (Homo sapiens, UniProt P00352).
T1 sequence (P00352 2-501): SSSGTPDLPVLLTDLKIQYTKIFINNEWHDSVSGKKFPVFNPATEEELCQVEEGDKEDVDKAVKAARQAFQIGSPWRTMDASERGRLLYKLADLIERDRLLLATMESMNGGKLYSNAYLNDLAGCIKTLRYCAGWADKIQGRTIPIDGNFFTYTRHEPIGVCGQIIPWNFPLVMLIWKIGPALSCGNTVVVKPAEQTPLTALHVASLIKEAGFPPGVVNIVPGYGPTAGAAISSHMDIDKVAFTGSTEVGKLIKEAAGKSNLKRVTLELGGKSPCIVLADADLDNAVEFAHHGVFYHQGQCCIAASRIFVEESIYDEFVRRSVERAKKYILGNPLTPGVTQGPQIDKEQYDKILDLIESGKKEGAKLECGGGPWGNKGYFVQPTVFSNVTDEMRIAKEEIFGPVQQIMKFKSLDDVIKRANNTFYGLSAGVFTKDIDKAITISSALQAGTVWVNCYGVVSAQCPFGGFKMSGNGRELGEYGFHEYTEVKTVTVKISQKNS
The assay can be described thus: X-ray crystal structure at […] Å (complex with NAD and CM38). It is filed as binding.

The target of assay [2] is T1, ALDH1A1. As to the kind of experiment: purified recombinant enzyme, NAD(P)H formation at […] nm with propionaldehyde as substrate. It is filed as biochemical.
The next assay addresses T2, ALDH1A2 (Homo sapiens, UniProt O94788).
T2 sequence (O94788 1-518): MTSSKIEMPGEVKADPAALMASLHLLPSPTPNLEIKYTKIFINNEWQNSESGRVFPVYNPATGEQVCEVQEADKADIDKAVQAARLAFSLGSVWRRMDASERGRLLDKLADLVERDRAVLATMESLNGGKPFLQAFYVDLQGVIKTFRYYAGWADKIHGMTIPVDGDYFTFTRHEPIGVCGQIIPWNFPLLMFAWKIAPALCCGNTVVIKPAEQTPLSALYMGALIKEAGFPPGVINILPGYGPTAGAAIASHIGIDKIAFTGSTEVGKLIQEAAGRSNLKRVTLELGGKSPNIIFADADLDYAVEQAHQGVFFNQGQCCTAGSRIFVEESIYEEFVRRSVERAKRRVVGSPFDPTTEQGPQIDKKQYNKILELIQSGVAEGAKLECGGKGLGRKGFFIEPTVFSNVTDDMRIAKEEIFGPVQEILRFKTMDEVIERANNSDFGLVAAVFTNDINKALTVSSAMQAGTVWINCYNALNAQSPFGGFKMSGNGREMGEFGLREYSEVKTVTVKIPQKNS
The assay can be described thus: biochemical. Also on record: NAD(P)H formation at 340 nm, purified recombinant ALDH1A enzyme, propionaldehyde and NAD+. Particulars: read-out: ALDH1A2 % activity versus control at 20 uM. How it is done:
(§1) Human ALDH1A1, ALDH1A2, and ALDH1A3 were prepared and purified as previously described. The inhibition of ALDH activity by compounds and the IC50 curves were determined by measuring the formation of NAD(P)H spectrophotometrically at 340 nm (molar extinction coefficient of 6200 M^−1 cm^−1) on a Beckman DU-640 as well as a Spectramax 340 PC spectrophotometer (GMI, Ramsey, NJ, USA) using a purified recombinant enzyme. The reaction components for assays with ALDH1A enzymes consisted of 100–200 nM enzyme, 200 µM NAD+, 100 µM propionaldehyde, and 1% DMSO in 25 mM BES buffer at pH 7.5. All assays were performed at 25 °C and were initiated by the addition of substrate after a 2 min incubation period. The purification of and the reaction conditions for the other ALDH isoenzymes were as described in [27]. […] The data were fit to the four-parameter EC50 equation using SigmaPlot (v14), and the values represent the means/SEM of three independent experiments (n = 3). Figure S1. X-Ray Crystallography of CM38 with ALDH1A1 and characterization of inhibitor activ-ity (A). Structure of Human ALDH1A1 with bound compound CM38. […] (B). Inhibition of ALDH activity by compounds and IC50 curves were determined by measuring the formation of NAD(P)H spectro-photometrically at 340 nm using purified recombinant enzymes. (C). […]

A further assay addresses T3, ALDH1A3 (Homo sapiens, UniProt P47895).
T3 sequence (P47895 1-512): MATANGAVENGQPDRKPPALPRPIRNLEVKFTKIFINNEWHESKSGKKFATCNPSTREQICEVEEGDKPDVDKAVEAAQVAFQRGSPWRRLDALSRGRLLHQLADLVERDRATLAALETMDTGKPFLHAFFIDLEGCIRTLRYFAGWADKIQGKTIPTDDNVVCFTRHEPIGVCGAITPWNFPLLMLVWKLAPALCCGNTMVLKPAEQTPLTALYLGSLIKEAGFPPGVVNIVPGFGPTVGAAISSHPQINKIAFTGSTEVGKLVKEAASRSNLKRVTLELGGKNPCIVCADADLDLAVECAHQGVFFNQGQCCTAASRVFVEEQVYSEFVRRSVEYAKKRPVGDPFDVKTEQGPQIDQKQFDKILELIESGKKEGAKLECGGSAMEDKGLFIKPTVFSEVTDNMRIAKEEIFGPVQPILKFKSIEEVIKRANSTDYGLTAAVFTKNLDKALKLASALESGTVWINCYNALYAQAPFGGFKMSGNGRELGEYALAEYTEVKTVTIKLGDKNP
As to the kind of experiment: biochemical. The arrangement: NAD(P)H formation at 340 nm, purified recombinant ALDH1A enzyme, propionaldehyde and NAD+. As to conditions: read-out: ALDH1A3 % activity versus control at 20 uM. On the procedure: as §1

A further assay has as its target T4, ALDH1B1 (Homo sapiens, UniProt P30837).
T4 sequence (P30837 1-517): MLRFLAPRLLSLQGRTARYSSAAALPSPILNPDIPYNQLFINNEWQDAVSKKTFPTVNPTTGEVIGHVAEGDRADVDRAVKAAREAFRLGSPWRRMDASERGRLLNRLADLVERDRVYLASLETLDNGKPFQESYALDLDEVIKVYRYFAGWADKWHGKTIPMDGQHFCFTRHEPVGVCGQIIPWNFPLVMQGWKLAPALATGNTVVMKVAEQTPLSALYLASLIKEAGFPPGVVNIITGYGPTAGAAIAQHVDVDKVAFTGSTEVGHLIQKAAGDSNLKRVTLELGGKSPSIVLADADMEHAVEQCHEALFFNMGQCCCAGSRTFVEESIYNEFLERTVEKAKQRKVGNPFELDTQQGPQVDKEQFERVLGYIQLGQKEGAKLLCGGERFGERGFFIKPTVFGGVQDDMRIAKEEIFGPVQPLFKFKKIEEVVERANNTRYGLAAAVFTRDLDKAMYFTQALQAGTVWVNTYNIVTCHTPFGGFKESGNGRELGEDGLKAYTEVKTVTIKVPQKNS
The assay can be described thus: biochemical. The arrangement: NAD(P)H formation at 340 nm, purified recombinant ALDH isoenzymes. As to conditions: read-out: ALDH1B1 % activity versus control at 20 uM. On the procedure: as §1

For the next assay, the target named is T5, ALDH2 (Homo sapiens, UniProt P05091).
T5 sequence (P05091 1-517): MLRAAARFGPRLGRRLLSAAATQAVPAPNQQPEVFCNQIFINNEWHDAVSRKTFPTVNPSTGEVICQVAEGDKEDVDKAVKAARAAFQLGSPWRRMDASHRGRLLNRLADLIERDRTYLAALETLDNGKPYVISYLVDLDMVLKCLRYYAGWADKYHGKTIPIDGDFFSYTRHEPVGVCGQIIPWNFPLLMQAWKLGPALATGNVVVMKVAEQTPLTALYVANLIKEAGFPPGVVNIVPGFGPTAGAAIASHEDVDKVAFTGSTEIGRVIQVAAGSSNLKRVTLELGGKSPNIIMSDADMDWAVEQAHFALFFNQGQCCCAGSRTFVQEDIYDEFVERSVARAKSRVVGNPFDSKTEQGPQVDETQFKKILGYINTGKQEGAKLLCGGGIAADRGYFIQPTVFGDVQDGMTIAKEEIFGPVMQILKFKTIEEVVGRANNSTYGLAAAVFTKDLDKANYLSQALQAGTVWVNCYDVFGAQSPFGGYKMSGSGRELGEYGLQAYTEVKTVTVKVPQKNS
As to the kind of experiment: biochemical. Particulars: read-out: ALDH2 % activity versus control at 20 uM. The arrangement: NAD(P)H formation at 340 nm, purified recombinant ALDH isoenzymes. On the procedure: as §1

Regarding `NC(=O)c1ccc[n+]([C@@H]2O[C@H](COP(=O)([O-])OP(=O)(O)OC[C@H]3O[C@@H](n4cnc5c(N)ncnc54)[C@H](O)[C@@H]3O)[C@@H](O)[C@H]2O)c1` [NAD], the “X-ray crystal structure at 1.8 Å (complex with NAD and CM38)” value on ALDH1A1 [1] is “we determined the structure of ALDH1A1 in a complex with both NAD and CM38 by X-ray crystallography”.

As to `Cc1c(C(=O)N2CCCCC2)oc2ccc3c(c12)C(=O)CC1(CCCCCC1)O3` [compound 974], the IC50 at ALDH1A1 [2] is 470 nM. Besides, the remaining activity at 20 µM came to 63 ± 4.2% at ALDH1A2, 85 ± 4% on ALDH1A3, 67 ± 3.9% on ALDH1B1 and 76 ± 20% on ALDH2.

As usually defined, the IC50 is the concentration at which inhibition is half-maximal.
